From patent publication US20090104124A1, “Paramagnetic Complexes with Pendant Crown Compounds Showing Improved Targeting- Specificity as MRI Contrast Agents” (priority 2007, published 2009)

Tests used:
[1] = Luminescence lifetime measurements of Tb complexes for hydration number q; assay type: physicochemical; conditions: for inner-sphere coordinated (bound) water molecules, luminescent measurements: pH 6.9; for kH2O, absolute emission depopulation rate constant in H2O: pH 6.9 (0.1 M Tris/HCl), 298 K, ±10%
From the text: As previously mentioned, inner-sphere proton relaxivity is linearly proportional to the number of water molecules q that are directly coordinated to the Gd^3+ center. However, there is a trade-off between the q value and toxicity. […] It is noteworthy that there is no direct method of measuring the hydration number. The two commonly used indirect methods are as follows: (1) Lanthanide-induced shift (LIS) methods (see, Alpoim et al., J. Chem. Soc., Dalton Trans., 1992, 463). For paramagnetic Ln^3+ ions, the plot of the observed ^17O shift in Ln^3+ chelate solution versus the complex concentration gives a straight line, with the slope being proportional to its hydration number. (2) The lanthanide luminescence method. According to the Horrocks equation, the q value can be calculated by the emission rate constants for the depopulation of Tb^3+ or Eu^3+ complexes measured in H2O and D2O (see, Beeby at al., J. Chem. Soc., Perkin Trans. 2, 1999, 493). With this method, the q values of the Gd^3+ complexes in aqueous solution can be measured indirectly by their corresponding Tb^3+ or Eu^3+ complexes, because of the very similar coordination behavior between these three lanthanide ions.
Luminescence lifetime measurements were all obtained on a Perkin-Elmer LS 50B spectrofluorimeter with a 420 nm cut-off filter. The concentration of the complex was 1×10^−5˜1×10^−4 mol dm^−3. The emission of Tb^3+ or EU^3+ complexes was monitored at […]. Gd^3+ is a neighbor of Eu^3+ and Tb^3+ with a nearly identical ionic radius, and thus their chemistries are virtually identical. Therefore, the Horrocks equation for determining the number of coordinated water molecules q for Eu^3+ and Tb^3+ is still valid for the calculation of the q value of Gd^3+. In general, the number of coordinated water molecules q can be determined by the measurement of the luminescent lifetime of the complexes separately in H2O and D2O by application of the Horrocks equation.
qcorr=A(kH2O−kD2O−a)
where k is the constant for depopulation (reciprocal of luminescent lifetime), and A is a proportionality constant that signifies the sensitivity of the lanthanide ion to vibronic quenching by OH oscillators. a is correlation value for the consideration of the outer-sphere water molecules.

kidney cortex = experiment: In vivo MRI, renal intensity enhancement (T1-weighted); set-up: species or system male Sprague-Dawley (SD) rats; conditions: rat, 0.1 mmol/kg
Procedure: (§1) To study the MRI contrast and biodistribution behavior of gadolinium complexes […] pendant crown ethers, experiments were performed using male Sprague-Dawley (SD) rats that weighted 150-180 g, and were housed at the Wuhan Institute of Physical and Mathematics of the Chinese Academy of Sciences (Wuhan, Hubei Province, China). All procedures conformed to the institutional guidelines for animal welfare. The rat was injected via the femoral vein with 1 mL saline solution of GdL1 in concentrations of 0.1, 0.033, and 0.02 mM/kg, which are the standard dosage, one third and one fifth of the standard dosage used in clinic currently. MR imaging was performed on a 4.7 T Bruker BIO-SPEC-47/30 MRI scanner with a custom spiral surface coil. The animal was scanned in the prone position in the MRI experiment. […] The total duration of the dynamic scanning lasted up to 400 min after the administration, with an image every 4 min. A water tube was placed in the field of view as a phantom reference. The intensity enhancement (IE) of the region of interest (RI) at time point t is expressed by IE=100% (RI(t)-RI(0))/RI(0) where RI(t) corresponds to the normalized signal intensity as measured at time point, t and RI(0) is the normalized signal intensity precontrast.

MIHA cells [2] = experiment: AO/EB staining, laser scanning confocal microscopy of cell morphology; assay type: cell-based; conditions: 10 μM, up to 24 h of incubation
Procedure: MIHA cells in the absence (control) and presence of Gd-DOTA (10 μM), Gd-DO3A (10 μM), and GdL1 (10 μM) incubated at 37° C. and 5% CO2, 95% air in a humidified incubator for 1 h, 2 h, 8 h, and 24 h, respectively.
Based on cell morphology and cell membrane integrity, normal, necrotic, and apoptotic cells can be distinguished using laser confocal microscopy. FIG. 22 gives the cell morphology in the absence and presence of Gd-DOTA (10 μM), Gd-DO3A (10 μM), and GdL1 (10 μM) at various time intervals after the incubation. In the absence or presence of the Gd^3+ complexes, the nuclei of the living cells were stained as bright blue spots in the nucleus.

[3] = Variable-temperature 17O NMR transverse relaxation (water exchange); assay type: physicochemical; conditions: for TM (derived from VT 17O NMR spectroscopy): 25° C., pH 6.9; for exchange lifetime τM of the inner-sphere coordinated water molecules: 298 K (25° C.), 2.12 T
From the text: (§2) Measuring the relaxation rates of an abundant nuclear species as a function of the magnetic field over a wide range is called relaxometry. A relaxometry profile is a plot of the nuclear magnetic relaxation rate, usually 1/T1, as a function of the Larmor frequency or the magnetic field. This profile is also called a Nuclear Magnetic Resonance Dispersion (NMRD) profile. Compared with the NMRD profile, the prominent advantage of the ^17O NMR technique is that it allows the accurate determination of the water exchange rate 1/τM. This is a consequence of the oxygen nucleus being closer to the paramagnetic centre when bound in the inner-sphere, wherein the outer-sphere contributions to the relaxation rates are negligibly small. With the help of NMRD profiles, ^17O NMR measurements, and the Soloman-Bloemnergen-Morgan theory, several important parameters, such as τM, τR, τv, Δ^2 and τH, can be measured.
The variable-temperature ^17O NMR measurements were recorded on a JEOL EX-90 (2.1 T) spectrometer that was equipped with a 5 mm probe, by using a D2O external lock. The experimental settings were: spectral width of 10000 Hz, pulse width of 7 μs, acquisition time of 10 ms, 1000 scans, and no sample spinning. Solutions containing 2.6% of ^17O isotope were used. The observed transverse relaxation rates (R2obs^0) were calculated from the signal width at half height.

liver parenchyma = experiment: In vivo MRI, hepatic intensity enhancement (T1-weighted); set-up: species or system male Sprague-Dawley (SD) rats; conditions: rat
Procedure: as §1

[4] = 1H NMRD profiles (water proton relaxivity); assay type: physicochemical; conditions: for D: 25° C., pH 6.9, fits of NMRD profile and 17O NMR
From the text: as §2
Water proton nuclear magnetic resonance dispersion NMRD profile is used to record the longitudinal water proton relaxation rates as a function of magnetic fields. The method is, in principle, sensitive to all of the parameters that influence relaxivity. […] The relaxometer worked under complete control with an absolute uncertainty in 1/T1 of ±2%. The NMRD profiles were measured using 1-2 mM solutions of the complexes.

MIHA cells [5] = experiment: In vitro cytotoxicity, cell proliferation assay (MTT / XTT-based); conditions: 1×10^−2 M, 24 h incubation
Procedure: To further investigate the potential ability of GdL1 as an NMRI contrast agent, its cytotoxicity was measured by MTT assay. The toxicity of GdL1 was determined from the dose-dependence of surviving cells after exposure to this Gd^3+ complex at different time intervals. For comparison, the cytotoxicities of Gd-DOTA and Gd-DO3A were measured under the same conditions.
To evaluate the toxicity of prepared Gd^3+ complexes, a colorimetric assay (XTT-based) for the non-radioactive quantification of cell proliferation was applied. In the cell proliferating process, the added tetrazolium salt XTT was cleaved to a formazan dye by metabolically active cells, and the quantification of cell growth was achieved by the variation of the absorbance at 492 nm. Seed MIHA Cells at a concentration of 5×10^3 cells/well (tissue culture grade, 96 wells, flat bottom) were added to Gd^3+ complexes (0.625-10 mM) in a humidified atmosphere (37° C., 6.5% CO2). Different concentrations of drugs were adjusted by performing serial dilution. The incubation period of the cell culture ranged from 1, 2, 8, and 24 hrs. XTT dye at a concentration of 5 mg/mL (sigma, St. Louis, Mo.) was added, and the plates were incubated for 12 h in a moist chamber at 37° C. The optical density was determined by eluting the dye with dimethyl sulfoxide, and the absorbance was measured at 570 nm. […]

[6] = complex with Gd^3+; cited from earlier work
[7] = 20 MHz, 298 K; cited from earlier work
[8] = 298 K; cited from earlier work

O=C([O-])CN1CCN(CCN2CCOCCOCCOCCOCC2)CCN(CC(=O)[O-])CCN(CC(=O)[O-])CC1.[Tb+3] [TbL1]
inner-sphere coordinated (bound) water molecules, luminescent measurements [1]: two
kH2O, absolute emission depopulation rate constant in H2O [1]: 0.72 ms^−1

O=C([O-])CN1CCN(CC(=O)[O-])CCN(CC(=O)[O-])CCN(CC(=O)[O-])CC1.[Tb+3] [Tb-DOTA, reference compound]
kH2O, absolute emission depopulation rate constant in H2O [1]: 0.48 ms^−1

O=C([O-])CN1CCN(CCN2CCOCCOCCOCCOCC2)CCN(CC(=O)[O-])CCN(CC(=O)[O-])CC1.[Gd+3] [GdL1]
renal IE still preserved 250 minutes after injection (kidney cortex): 40%
apoptotic or necrotic cells (cell morphology, AO/EB) (MIHA cells [2]): no obvious apoptotic or necrotic cells were found
TM (derived from VT 17O NMR spectroscopy) [3]: 55 ns
exchange lifetime τM of the inner-sphere coordinated water molecules [3]: 55 ns
time after injection of maximal hepatic IE (liver parenchyma; 0.03 mmol/kg): 60 to 100 min
hepatic IE on plateau (liver parenchyma; 0.033 mmol/kg): > 60%
resident lifetime in hepatic tissue (liver parenchyma; 0.1 mmol/kg): > 4 h
inner-sphere coordinated water molecules from 1H NMRD profiles [4]: two
D [4]: 2.24E−5 cm^2s^−1
viability of the MIHA cells (MIHA cells [5]): not affected obviously

O=C([O-])CN(CCN(CC(=O)[O-])CC(=O)O)CCN(CC(=O)[O-])CC(=O)O.[Gd+3] [Gd-DTPA]
log K (K = formation constant of the metal complex) [6]: 24.6
TM (derived from VT 17O NMR spectroscopy) [3]: 250 ns
D [4]: 2.24E−5 cm^2s^−1
relaxivity r1p (typical values) [7]: 4.69 mM⁻¹ s⁻¹
bound water molecular resident lifetime τM (typical values) [8]: ~303 ns

O=C([O-])CN1CCNCCN(CC(=O)[O-])CCN(CC(=O)[O-])CC1.[Tb+3] [Tb-DO3A, reference compound]
kH2O, absolute emission depopulation rate constant in H2O [1]: 0.88 ms^−1

O=C([O-])CN1CCN(CC(=O)[O-])CCN(CC(=O)N2CCOCCOCCN(Cc3ccc4ccccc4n3)CCOCCOCC2)CCN(CC(=O)[O-])CC1.[Tb+3] [TbL3]
inner-sphere coordinated (bound) water molecules, luminescent measurements [1]: only one
kH2O, absolute emission depopulation rate constant in H2O [1]: 0.50 ms^−1

O=C([O-])CN1CCN(CC(=O)[O-])CCN(CC(=O)N2CCOCCOCCN(Cc3ccc4ccccc4n3)CCOCCOCC2)CCN(CC(=O)[O-])CC1.[Gd+3] [GdL3]
TM (derived from VT 17O NMR spectroscopy) [3]: 246 ns
exchange lifetime τM of the inner-sphere coordinated water molecules [3]: 246 ns
level of hepatic enhancement maintained for more than 4 h (liver parenchyma; 0.1 mmol/kg): about 50%
time for which hepatic intensity enhancement was maintained (liver parenchyma; 0.1 mmol/kg): more than 4 h
reorientation lifetime τR [4]: 210 ps
D [4]: 2.24E−5 cm^2s^−1
q from NMRD profile ([4]; pH 7.5): 1

O=C([O-])CN1CCNCCN(CC(=O)[O-])CCN(CC(=O)[O-])CC1.[Gd+3] [Gd-DO3A, reference compound]
apoptotic or necrotic cells (cell morphology, AO/EB) (MIHA cells [2]): no obvious apoptotic or necrotic cells were found
TM (derived from VT 17O NMR spectroscopy) [3]: 160 ns
exchange lifetime τM of the inner-sphere coordinated water molecules [3]: 160 ns
D [4]: 2.24E−5 cm^2s^−1

O=C([O-])CN1CCN(CCOCC2COCCOCCOCCOCCO2)CCN(CC(=O)[O-])CCN(CC(=O)[O-])CC1.[Gd+3] (stereo not drawn) [GdL2]
TM (derived from VT 17O NMR spectroscopy) [3]: 116 ns
exchange lifetime τM of the inner-sphere coordinated water molecules [3]: 116 ns
level of hepatic enhancement maintained for more than 4 h (liver parenchyma; 0.1 mmol/kg): > 60%
time for which hepatic intensity enhancement was maintained (liver parenchyma; 0.1 mmol/kg): more than 4 h
overall relaxivity r1p ([4]; 20 MHz, pH 10.0): 4.21 mM⁻¹ s⁻¹
D [4]: 2.24E−5 cm^2s^−1

O=C([O-])CN1CCN(CC(=O)[O-])CCN(CC(=O)O)CCN(CC(=O)[O-])CC1.[Gd+3] [Gd-DOTA, reference compound]
apoptotic or necrotic cells (cell morphology, AO/EB) (MIHA cells [2]): no obvious apoptotic or necrotic cells were found
TM (derived from VT 17O NMR spectroscopy) [3]: 300 ns
exchange lifetime τM of the inner-sphere coordinated water molecules [3]: 245 ns
maximal hepatic IE (liver parenchyma; 0.02 mmol/kg (1/5 of standard dose)): no remarkable hepatic IE was detected
D [4]: 2.24E−5 cm^2s^−1
relaxivity r1p (typical values) [7]: 4.74 mM⁻¹ s⁻¹
bound water molecular resident lifetime τM (typical values) [8]: about 244 ns
